Target: T1, SHIP1 (Mus musculus, UniProt Q9ES52)
T1 construct: The asterisk in lanes 1 and 3 indicates the ˜145 kD full-length SHIP protein; His tag (C); made in house; host or cells: E. coli Rosetta-Gami 2 (DE3) pLys
T1 sequence (Q9ES52 1-1191): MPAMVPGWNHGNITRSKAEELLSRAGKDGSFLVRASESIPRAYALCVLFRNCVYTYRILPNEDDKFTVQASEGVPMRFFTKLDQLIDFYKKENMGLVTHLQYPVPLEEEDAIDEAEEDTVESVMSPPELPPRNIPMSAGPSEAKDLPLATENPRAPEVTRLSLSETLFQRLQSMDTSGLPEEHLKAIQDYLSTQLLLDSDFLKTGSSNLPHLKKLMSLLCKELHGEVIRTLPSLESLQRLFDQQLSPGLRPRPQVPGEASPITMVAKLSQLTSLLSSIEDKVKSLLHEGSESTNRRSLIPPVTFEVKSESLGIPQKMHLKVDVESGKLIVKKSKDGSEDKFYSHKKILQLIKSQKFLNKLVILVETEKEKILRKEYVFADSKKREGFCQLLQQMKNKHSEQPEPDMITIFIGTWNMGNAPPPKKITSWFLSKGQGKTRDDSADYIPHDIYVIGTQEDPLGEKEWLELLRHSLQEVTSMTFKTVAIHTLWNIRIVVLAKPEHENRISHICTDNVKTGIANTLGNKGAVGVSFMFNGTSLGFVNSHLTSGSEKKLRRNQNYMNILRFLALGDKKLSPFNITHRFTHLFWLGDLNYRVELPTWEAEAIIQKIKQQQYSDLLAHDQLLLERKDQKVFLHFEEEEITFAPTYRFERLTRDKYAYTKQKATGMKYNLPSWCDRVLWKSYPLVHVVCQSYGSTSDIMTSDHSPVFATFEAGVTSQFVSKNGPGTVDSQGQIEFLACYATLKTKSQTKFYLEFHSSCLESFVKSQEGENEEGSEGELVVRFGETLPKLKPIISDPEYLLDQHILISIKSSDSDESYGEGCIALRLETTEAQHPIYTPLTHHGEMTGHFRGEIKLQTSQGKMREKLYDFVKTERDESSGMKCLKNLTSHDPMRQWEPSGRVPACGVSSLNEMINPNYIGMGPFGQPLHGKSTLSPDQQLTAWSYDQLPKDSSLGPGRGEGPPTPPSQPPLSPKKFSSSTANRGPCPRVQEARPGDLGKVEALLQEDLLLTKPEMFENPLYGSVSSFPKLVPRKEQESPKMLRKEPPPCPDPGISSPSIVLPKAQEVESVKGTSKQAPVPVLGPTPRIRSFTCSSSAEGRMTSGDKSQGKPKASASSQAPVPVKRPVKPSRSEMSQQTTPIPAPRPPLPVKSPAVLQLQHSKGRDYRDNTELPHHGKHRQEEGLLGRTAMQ
Test: Fluorescence polarization (FP) assay of SHIP1 enzymatic activity
Type: biochemical
Conditions: for SHIP inhibitory activity in FP assay: confirmatory FP assay of screening hits
Excerpt: SHIP is detectable in this expression system as a ˜145 kD protein (FIG. 1a, lane 1). Because of an in-frame Histidine (His) tag on the COOH terminus of SHIP, it can then be purified from E. coli lysates by FPLC over a Ni-containing resin. (FIG. 1a, lane 3). Purified SHIP was routinely obtained in sufficient quantities, using this E. coli expression system and FPLC purification, to conduct high-throughput screening (HTS) of chemical libraries for compounds that inhibit SHIP activity. However, prior to screening, a fluorescence polarization (FP) assay that detects SHIP activity in either a 96- or […] format, seen in FIG. 1b, screen was established. SHIP generates PI(3,4)P2 from its PI(3,4,5)P3 substrate. In the FP assay enzymatic generation of PI(3,4)P2 by SHIP reduces polarized fluorescence (mP) because the fluorescent PI(3,4)P2 “probe” is displaced from a detector protein that binds specifically to PI(3,4)P2. The FP assay is highly specific for SHIP activity in these lysates. No significant 5′-inositol phosphatase activity was detected in E. coli lysates harboring an ‘empty’ pet24b expression vector insert when FPLC fractions where SHIP typically elutes with the imidazole step gradient are analyzed in the FP assay (FIG. 1c).
After preparing purified SHIP and establishing the FP assay, two different chemical libraries, comprising a total of ˜2100 different chemical compounds, were screened. Seventeen compounds capable of inhibiting SHIP activity at μM concentrations were identified in this screen. The compounds were verified for SHIP activity inhibition by repeating the FP assay with the compounds obtained from their respective wells in the replicates of the masterplates for these libraries FIGS. 2-6).
A fluorescence polarization (FP) assay to detect and quantify SHIP2 activity has been previously described [Drees B E, et al., Comb Chem High Throughput Screen (2003) 6(4):321-330], but no assay has been described for the detection of SHIP1. A fluorescence polarization (FP) assay was developed to detect the activity of recombinant SHIP1 (see FIGS. 15a and b) and the FP assay was utilized as a rapid screen to detect compounds in chemical libraries that have inhibitory activity against SHIP1. This screen identified 3α-aminocholestane as a potent inhibitor of SHIP1 enzymatic activity (FIG. 15c). […] This high degree of selectivity could be important, since loss of PTEN function promotes malignancy in parenchymal and hematopoietic tissues. [Yuan T L & Cantley L C Oncogene (2008) 27(41):5497-5510; Zhang J, et al., Nature (2006) 441(7092):518-522; Yilmaz O H, et al., Nature (2006) 441(7092):475-482]
Assay of SHIP1 enzymatic activity: A fluorescent polarization (FP) assay that detects the 5′-inositol phosphatase activity of SHIP1 was developed based on a previously established protocol [Drees B E, et al., Comb Chem High Throughput Screen (2003) 6(4):321-330] and was obtained from Echelon Biosciences (Salt Lake City, USA). Modifications of the protocol included the application of SHIP1 in the assay and an increase in the concentration of MgCl2 to […] to maximize the activity of SHIP1 in this assay. Each enzymatic reaction was performed in a 96 well working plate and added in the following order and concentration: Recombinant SHIP1 (0.1 μg) in PBS+20 mM MgCl2, 100 μM of each individual compound from the NCI Diversity Set and then PI(3,4,5)P3 substrate diluted 1:10 in H2O. The enzymatic reaction was incubated for 30 min at room temperature. The detector, reaction mixture and probe were then combined according to the SHIP2 protocol. Malachite Green Phosphatase Assay Kit was obtained from Echelon Biosciences (Salt Lake City, USA). Assays for SHIP2 were performed according to the manufacturer's protocol. The concentration of SHIP1 and SHIP2 per reaction mixture was […]. PTEN was used at the concentration recommended by the manufacturer.

| SHIP inhibitory activity in FP assay (listed as NSC 13480) | SMILES | concentration with detectable inhibitory activity against SHIP1 (0.1 μg of recombinant SHIP1, FP assay) [µM] | inhibition of SHIP1 activity (at 100 μM in the FP assay) | SHIP inhibitory activity in FP assay | SHIP inhibitory activity in FP assay (listed as NSC 23922) |
| --- | --- | --- | --- | --- | --- |
| – | CC(C)CCC[C@@H](C)[C@H]1CC[C@H]2[C@@H]3CC[C@H]4C[C@H](N)CC[C@]4(C)[C@H]3CC[C@]12C [NSC23922, (3R,5S,8R,9S,10S,13R,14S,17R)-10,13-dimethyl-17-[(2R)-6-methylheptan-2-yl]-2,3,4,5,6,7,8,9,11,12,14,15,16,17-tetradecahydro-1H-cyclopenta[a]phenanthren-3-amine] | 2 | inhibits SHIP1 activity | inhibit both SHIP1 and SHIP2 enzymatic activity | SHIP inhibitory activity |
| SHIP inhibitory activity | OC(c1cc(-c2ccccc2)nc2c1ccc1ccccc12)C1CCCCN1 (stereo not drawn) [NSC13480, (2-phenylbenzo[h]quinolin-4-yl)-piperidin-2-ylmethanol] | – | – | inhibit both SHIP1 and SHIP2 enzymatic activity | – |
